We go through 3 molecules from ChEMBL document CHEMBL6103664, “Novel Pyrimidinyl Sulfonamide Derivatives as GPR17 Modulators” (ACS Med Chem Lett, 2025).

SMILES strings stand for the structures.

Assay type in all cases: ADME, Microsome
What all share (settings): time 55 min

The nature of data set [1]: Clearance in mouse microsomes assessed per mg protein at 1 uM preincubated for 10 mins followed by NADPH addition and measured after 1 to 45 mins by LC-MS/MS analysis.
Data set [2] in a line: Clearance in rat microsomes assessed per mg protein at 1 uM preincubated for 10 mins followed by NADPH addition and measured after 1 to 45 mins by LC-MS/MS analysis.
Data set [3] in a line: Clearance in human microsomes assessed per mg protein at 1 uM preincubated for 10 mins followed by NADPH addition and measured after 1 to 45 mins by LC-MS/MS analysis.

By microsomal CLint is commonly meant the capacity of the preparation to metabolise the compound, expressed as a volume cleared per time. Turning to `COc1nc(NS(=O)(=O)c2c[nH]c(-c3nccs3)c2)nc(OC)c1OC(F)F`, the values for the intrinsic clearance (microsomal CLint) at 1 µM in data set [1], in data set [2] and in data set [3] were 10 µL/min/mg, 50 µL/min/mg and 10 µL/min/mg, respectively.

As to `COc1nc(NS(=O)(=O)c2c[nH]c(-c3ccccc3)c2)nc(OC)c1OCC(F)F`, the intrinsic clearance (microsomal CLint) at 1 µM in data set [1] was 21 µL/min/mg; in data set [2], 81 µL/min/mg; in data set [3] it was 10 µL/min/mg.

With `COc1nc(NS(=O)(=O)c2c[nH]c(-c3ncccc3F)c2)nc(OC)c1OCCF`, the figures for the intrinsic clearance (microsomal CLint) at 1 µM in data set [1], in data set [2] and in data set [3] were 12 µL/min/mg, 32 µL/min/mg and 10 µL/min/mg, respectively.
